Experimental data as given in article PMC8776094, “Reactive Oxygen Species Production Is Responsible for Antineoplastic Activity of Osmium, Ruthenium, Iridium and Rhodium Half-Sandwich Type Complexes with Bidentate Glycosyl Heterocyclic Ligands in Various Cancer Cell Models” (International Journal of Molecular Sciences, 2022).
pIC50: −log10 of the molar value. Entries after “also recorded” stand apart in the source; their conditions may differ.

Experiments:
Format in all cases: cell-based
[1] = tested on: A2780 ovarian cancer cells; assay: SRB assay, 48 h, cytostasis, A2780; conditions: for cytostatic activity on A2780 cells in SRB assay (in words): 48 h treatment; for pIC50 / A2780 Max. Inh. (%): SRB assay, 48 h; for A2780 Max. Inh. (%): ND = not detected
Method: The compounds were tested between 0.001694 and 33.3333 µM, using a 4-hour-long MTT test to assess rapid toxicity and a 48-hour-long SRB assay to assess the long-term effects of the inhibition of proliferation (cytostasis). The MTT assay assesses the activity of mitochondrial complex I and detects rapid, direct toxicity, as well as indicating apoptosis and necrosis. The SRB assay measures the total protein content that is proportional to cell numbers; therefore, the assay can detect changes in cell numbers and can thus be used as a readout for cell proliferation. The SRB assay was performed after 48 h of treatment (with the exception of L428 cells, which were tested for 96 h due to their slower proliferation rate). In this setting, the SRB assay informs us of long-term changes to cell proliferation. We assessed the maximal inhibition within that concentration range, and descriptive statistics were performed. We performed a one-way ANOVA, followed by the Kruskal–Wallis test, regardless of the normal or non-normal distribution of the data. Due to the large number of significance values, the results of the significance calculations are provided in an Excel spreadsheet at https://figshare.com/s/28d14597d5041f08eb08 (accessed on 6 January 2022), among other primary data of the study. Where possible, nonlinear regression was performed on the curves to determine the IC50 values ((inhibitor) vs. response—variable slope (four parameters) method with Graphpad v8.0.1). […] In Table 5, we added the IC50 values that we determined for a set of 4 active ruthenium half-sandwich complexes we identified previously, to be used in subsequent structure-activity relationship (SAR) analyses.
A2780 cells were cultured in RMPI 1640 medium, supplemented with 10% fetal calf serum, 2 mM glutamine, and 1% penicillin-streptomycin.
(§1) The assay was performed similarly to the method used in [73]. Cells were seeded in 96-well plates the day before the assay. Cells were treated with the compounds for 48 h, with the exception of L428, where 96 h of treatment was applied. Cells were fixed with 10% trichloroacetic acid (TCA). Fixed cells were washed in distilled water 3 times, followed by staining with SRB (0.4 m/V% dissolved in 1% acetic acid) for 10 min. The stained cells were washed in 1% acetic acid 5 times; the acetic acid was removed, and the cells were left to dry. Protein-bound SRB was released by adding 100 µL 10 mM Tris base. Plates were measured in a plate photometer (Thermo Scientific Multiscan GO spectrophotometer, Waltham, MA, USA) at 540 nm. On each plate, wells were designed to contain untreated cells. In calculations, the readings for these wells were considered as 1 and all readings were expressed relative to these values.
(§2) Statistical analysis was performed using the 8.0.1 version of Graphpad Prism. Values were tested for normal distribution, using the d’Agostino and Pearson normality test. When necessary, values were log-normalized or were normalized using the Box-Cox normalization method or using a two-step transformation, as indicated in the figure captions. Nonlinear regression was performed using the built-in “[Inhibitor] vs. Response—Variable slope (four parameters), least-square fit” utility of Graphpad, yielding the IC50 and Hill slope values.

[2] = tested on: Capan2, a pancreatic adenocarcinoma cell line; assay: SRB assay, 48 h, cytostasis, Capan2; conditions: for pIC50 / Capan2 Max. Inh. (%): SRB assay; for Capan2 Max. Inh. (%): ND = not detected
Text: (§3) We turned next to assessing whether the cytostatic activity of Os-3, Os-4, Os-5, Os-6 and Ir-6 complexes is specific for ovarian cancer cell lines or if they may be active on other cell lines. To that end, we tested the complexes on another carcinoma cell line (Capan2, a pancreatic adenocarcinoma cell line), on a sarcoma cell line (Saos, an osteosarcoma cell line) and on a lymphoma cell line (L428, a Hodgkin’s lymphoma cell line).
Capan2 cells were maintained in MEM, 10% fetal bovine serum, 1% penicillin/streptomycin, and 2 mM glutamine.
as §1, §2
(§4) Here, 1.5 × 10^3 Capan2, 3 × 10^3 Saos cells and 10^4 L428 cells were plated onto 96-well plates. Capan2 and Saos cells were treated with the compounds in the concentrations indicated for 48 h for an SRB assay. L428 cells were treated with the compounds in the concentrations indicated for 96 h, then cells were counted using conventional microscopy and a Burker chamber. Data are represented as average ± SD, from three biological replicates; individual assays were performed in duplicate. Values were normalized for vehicle-treated cells; the absorbance for vehicle-treated cells is equal to 1. A one-way ANOVA, followed by a Kruskal–Wallis test, was performed individually for each compound. The results of the statistical analysis are presented in an Excel spreadsheet at https://figshare.com/s/28d14597d5041f08eb08 (accessed on 6 January 2022). Nonlinear regression was performed on the data.

[3] = tested on: Saos, an osteosarcoma cell line; assay: SRB assay, 48 h, cytostasis, Saos; conditions: for pIC50 / Saos Max. Inh. (%): SRB assay; for Saos Max. Inh. (%): ND = not detected
Text: as §3
Saos cells were maintained in DMEM (4.5 g/L glucose) medium, supplemented with 10% fetal calf serum, 2 mM glutamine, and 1% penicillin-streptomycin.
as §1, §2, §4

A2780 cells = assay: Annexin V-propidium iodide double staining, cell death, flow cytometry; conditions: 2 h treatment; Os-3 2.68 µM, Os-4 3.25 µM, Os-5 2.84 µM, Os-6 0.70 µM, Ir-6 1.63 µM
Method: We selected the Os-3, Os-4, Os-5, Os-6 and Ir-6 complexes for further study, based on their strong cytostatic activity on the ovarian cancer cell lines, but there was a lack of activity on primary fibroblasts. […] Similar to previous approaches, as propidium iodide or Annexin V positivity is an early feature of cell death, we treated cells for 2 h and then performed double-staining with Annexin V—propidium iodide.
The proportion of dead cells was assessed using the Annexin V–propidium iodide assay and was measured using flow cytometry with a BD FacsCalibur (BD Biosciences, Franklin Lakes, NJ, USA) instrument and the FITC Annexin V/Dead Cell Apoptosis kit (Life Technologies, Eugene, OR, USA), according to the manufacturer’s instructions, in a process similar to that in [43]. Quadrants were set, based on the FITC and PI values observed for the vehicle-treated cells.
Here, 1 × 10^6 A2780 cells were plated in 6-well plates and were treated with the corresponding complexes (Os-3 at 2.68 µM, Os-4 at 3.25 µM, Os-5 at 2.84 µM, Os-6 at 0.70 µM, Ir-6 at 1.63 µM,) and 300 µM hydrogen peroxide for 2 h. Cells were then stained with Annexin V and propidium iodide (PI), then, cells were subjected to flow cytometry as described in the Materials and Methods section. The percentage of cells in the quadrants was plotted. Data are represented as average ± SD, from three biological replicates; individual assays were performed in duplicate. Normality was tested, on all datasets. A two-step transformation was used to achieve normal distribution. Statistical significance was determined using a two-way ANOVA test; all measurement points were compared with each other. ** and *** indicate statistically significant differences between vehicle-treated (control) and treated cells ([…] or 300 µM H2O2) corresponding to the same quadrant (e.g., vehicle-treated double-negative cells vs. Os-3-treated double-negative cells) at p < 0.01 and p < 0.001, respectively.

Row | SMILES | cytostatic activity on A2780 cells in SRB assay (in words) [1] | pIC50 [1] | A2780 Max. Inh. (%) [1] [%] | cytostatic activity on Capan2 cells (in words) [2] | pIC50 [2] | Capan2 Max. Inh. (%) [2] [%] | cytostatic activity on Saos cells (in words) [3] | pIC50 [3] | Saos Max. Inh. (%) [3] [%] | induction of cell death (Annexin V / propidium iodide positivity) (A2780 cells)
1 | Cc1c(C)c(C)[c-](C)c1C.F[P-](F)(F)(F)(F)F.O=C(OCC1OC(n2cc(-c3ccccn3)nn2)C(OC(=O)c2ccccc2)C(OC(=O)c2ccccc2)C1OC(=O)c1ccccc1)c1ccccc1.[Cl][Ir+2] (mixture of isomers) [Ir-6] | pronounced; also recorded: displayed cytostatic activity | 5.79 | 100 | active on all cell lines | 5.38 | 100 | active on all cell lines | 5.57 | 100 | None of the complexes induced cell death
2 | Cc1ccc(C(C)C)cc1.F[P-](F)(F)(F)(F)F.O=C(OCC1OC(c2nnc(-c3ccccn3)o2)C(OC(=O)c2ccccc2)C(OC(=O)c2ccccc2)C1OC(=O)c1ccccc1)c1ccccc1.[Cl][Os+] (mixture of isomers) [Os-3] | exerted cytostatic activity | 5.60 | 100 | active on all cell lines | 5.06 | 100 | active on all cell lines | – | 65 | None of the complexes induced cell death
3 | Cc1ccc(C(C)C)cc1.F[P-](F)(F)(F)(F)F.O=C(OCC1OC(c2nnc(-c3ccccn3)o2)C(OC(=O)c2ccccc2)C(OC(=O)c2ccccc2)C1OC(=O)c1ccccc1)c1ccccc1.[Cl][Os+] (mixture of isomers) [Os-4] | exerted cytostatic activity | 5.49 | 100 | active on all cell lines | 5.21 | 100 | active on all cell lines | 5.06 | 100 | None of the complexes induced cell death
4 | Cc1ccc(C(C)C)cc1.F[P-](F)(F)(F)(F)F.O=C(OC1COC(c2nnc(-c3ccccn3)o2)C(OC(=O)c2ccccc2)C1OC(=O)c1ccccc1)c1ccccc1.[Cl][Os+] (mixture of isomers) [Os-5] | exerted cytostatic activity | 5.55 | 100 | active on all cell lines | 5.05 | 100 | active on all cell lines | 5.07 | 100 | None of the complexes induced cell death
5 | Cc1ccc(C(C)C)cc1.F[P-](F)(F)(F)(F)F.O=C(OCC1OC(n2cc(-c3ccccn3)nn2)C(OC(=O)c2ccccc2)C(OC(=O)c2ccccc2)C1OC(=O)c1ccccc1)c1ccccc1.[Cl][Os+] (mixture of isomers) [Os-6] | exerted cytostatic activity | 6.15 | 100 | active on all cell lines | 5.77 | 100 | active on all cell lines | 5.44 | 100 | None of the complexes induced cell death
